Experimental data: ChEMBL document CHEMBL5579793, “Design of cyclic peptides as novel inhibitors of ICOS/ICOSL interaction” (Bioorg Med Chem Lett, 2024)
Active and inactive are the calls of the source. No cut-off for these calls is given here. Where a SMILES comes first, the peptide text is derived from it. Bridges are numbered along the chain shown (N, C = ends).

Columns and labels:
[1] = biological target: T1, ICOS-ICOSL (Homo sapiens) (UniProt O75144+Q9Y6W8); assay: (§1) Inhibition of ICOS/ICOSL (unknown origin) interaction by TR-FRET assay; format: protein assay
[2] = biological target: T1, ICOS-ICOSL (Homo sapiens); assay: (§2) Inhibition of ICOS/ICOSL (unknown origin) interaction by ELISA method; format: protein assay
[3] = biological target: T2, Inducible T-cell costimulator (Homo sapiens, UniProt Q9Y6W8); assay: Binding affinity to ICOS (unknown origin) assessed as dissociation constant
T2 sequence (Q9Y6W8 whole entry): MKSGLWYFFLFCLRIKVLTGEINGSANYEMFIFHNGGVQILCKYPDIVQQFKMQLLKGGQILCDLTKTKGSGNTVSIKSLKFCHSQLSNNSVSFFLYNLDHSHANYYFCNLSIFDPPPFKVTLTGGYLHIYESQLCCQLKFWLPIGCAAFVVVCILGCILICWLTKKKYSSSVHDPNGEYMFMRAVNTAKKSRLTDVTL

[4] = biological target: T3, ICOS-ICOSL (Homo sapiens, UniProt O75144+Q9Y6W8); assay: as §1; format: protein assay
T3 sequence (O75144 whole entry): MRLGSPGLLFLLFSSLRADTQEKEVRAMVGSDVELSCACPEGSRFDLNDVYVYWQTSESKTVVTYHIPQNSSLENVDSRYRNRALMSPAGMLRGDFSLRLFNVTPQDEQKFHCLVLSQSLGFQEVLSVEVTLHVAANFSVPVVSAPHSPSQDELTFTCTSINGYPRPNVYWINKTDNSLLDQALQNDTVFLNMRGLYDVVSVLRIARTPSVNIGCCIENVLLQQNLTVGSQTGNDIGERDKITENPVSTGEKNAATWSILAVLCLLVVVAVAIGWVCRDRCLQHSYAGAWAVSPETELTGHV
T3 sequence (Q9Y6W8 whole entry): T2 sequence (Q9Y6W8 whole entry)

[5] = Lipophilicity, log D of compound at pH 7.4 by shake-flask method; format: physicochemical; conditions: buffer
[6] = Apparent permeability of the compound in human Caco-2 cells across basolateral to apical side; format: ADME, cell-based
[7] = Stability in human plasma assessed as parent compound remaining measured after 2 hrs; format: ADME, cell-free; conditions: read-out: Stability
[8] = Stability in rat liver microsomes assessed as half life; format: ADME, Microsome
[9] = species on record: Homo sapiens; assay: Inhibition of LAG-3/FGL1 (unknown origin) protein-protein interaction at 50 uM by TR-FRET assay
[10] = Stability of the compound in stimulated intestinal fluid assessed as half life at pH 6.5; format: ADME; conditions: simulated intestinal fluid
[11] = Apparent permeability of the compound in human Caco-2 cells across apical to basolateral side; format: ADME, cell-based
[12] = species on record: Homo sapiens; assay: Inhibition of CTLA4/B-7 (unknown origin) protein-protein interaction at 50 uM by TR-FRET assay
[13] = biological target: T3, ICOS-ICOSL; assay: as §2; format: protein assay
[14] = Stability of the compound in stimulated gastric fluid assessed as half life at pH 1.6; format: ADME; conditions: simulated gastric fluid
[15] = species on record: Homo sapiens; assay: Inhibition of PD-1/PD-L1 (unknown origin) protein-protein interaction at 50 uM by TR-FRET assay
[16] = species on record: Homo sapiens; assay: Inhibition of VISTA/VSIG-3 (unknown origin) protein-protein interaction at 50 uM by TR-FRET assay

inhibition [1] | inhibition [2] | Kd [3] [µM] | IC50 [4] [µM] | logD [5] | Papp B→A [6] [×10⁻⁶ cm/s] | remaining at 2 h [7] [%] | half-life [8] [min] | inhibition [9] | half-life [10] [min] | Papp A→B [11] [×10⁻⁶ cm/s] | inhibition [12] | IC50 [13] [nM] | half-life [14] [min] | inhibition [15] | inhibition [16] | SMILES
inactive | inactive | 4.47 |  |  |  |  |  |  |  |  |  |  |  |  |  | CC[C@H](C)[C@@H]1NC(=O)[C@H](CO)NC(=O)[C@H](Cc2ccc(O)cc2)NC(=O)[C@H](Cc2ccc(O)cc2)NC(=O)[C@@H]2CSSC[C@H](NC(=O)[C@H](CC(C)C)NC(=O)[C@@H]3CCCN3C(=O)[C@@H]3CCCN3C1=O)C(=O)N[C@@H](CC(C)C)C(=O)N1CCC[C@H]1C(=O)N[C@@H](Cc1ccccc1)C(=O)NCC(=O)N[C@@H](CCCNC(=N)N)C(=O)N2 (cyclo(CLPFGRCYYSIPPL); disulfide 1-7)
 | inactive |  | 3.68 |  |  |  |  |  |  |  |  |  |  |  |  | CC(C)C[C@@H]1NC(=O)[C@H](Cc2ccccc2)NC(=O)[C@H](Cc2ccccc2)NC(=O)[C@@H]2CCCN2C(=O)[C@@H]2CCCN2C(=O)[C@H](Cc2ccc(O)cc2)NC(=O)[C@@H]2CCCN2C(=O)[C@H](C(C)C)NC(=O)[C@@H]2CCCN2C(=O)[C@H](Cc2ccc(O)cc2)NC(=O)[C@@H]2CSSC[C@H](NC1=O)C(=O)N[C@@H](CC(C)C)C(=O)N1CCC[C@H]1C(=O)N[C@@H](Cc1ccccc1)C(=O)N[C@@H](Cc1ccc(O)cc1)C(=O)N2 (cyclo(CLPFYCYPVPYPPFFL); disulfide 1-6)
 |  | 36.7 | 4.48 | 2.94 | 10.8 | 98.2 | 1100 | inactive | 1220 | 6.72 | inactive | 1870 | 390 | inactive | inactive | CC(C)C[C@H](NC(=O)[C@@H]1CSSC[C@H](NC(=O)[C@@H](N)Cc2ccc(O)cc2)C(=O)N[C@@H](Cc2ccc(O)cc2)C(=O)N2CCC[C@H]2C(=O)N[C@@H](C(C)C)C(=O)N2CCC[C@H]2C(=O)N[C@@H](Cc2ccc(O)cc2)C(=O)N2CCC[C@H]2C(=O)N2CCC[C@H]2C(=O)N[C@@H](Cc2ccccc2)C(=O)N[C@@H](Cc2ccccc2)C(=O)N[C@@H](CC(C)C)C(=O)N1)C(=O)N[C@@H](Cc1ccccc1)C(=O)N[C@@H](CC(N)=O)C(=O)O (H-YCYPVPYPPFFLCLFN-OH; disulfide 2-13)
